Laboratory results published in patent publication US12516388B2, “Biosensors for polyketide extender units and uses thereof” (NORTH CAROLINA STATE UNIVERSITY, priority 2019, dated 2026).

Key:
FapR [1] = target: T1, FapR (Bacillus subtilis, UniProt O34835); settings: previously reported; cited from earlier work
Target sequence in this assay (O34835 whole entry): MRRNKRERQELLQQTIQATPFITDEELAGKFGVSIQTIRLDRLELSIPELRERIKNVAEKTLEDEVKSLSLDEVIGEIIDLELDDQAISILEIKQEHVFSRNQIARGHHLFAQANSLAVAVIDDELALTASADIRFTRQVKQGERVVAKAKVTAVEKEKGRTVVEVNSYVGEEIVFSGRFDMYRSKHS

FapR [2] = target: T1, FapR; assay: Cell-free transcription-translation (TX-TL) FapR/T7-fapO-sfGFP assay; format: biochemical, B. subtilis; design: made in house; host or cells: E. coli BL21(DE3); settings: for effector of FapR as judged by cell-free fluorescence / fluorescence response (de-repression of FapR/T7-fapO-sfGFP) compared among thioesters: each thioester at fixed concentration (150 μM)
Excerpt: To this end, the reporter module of the FapR 2H8 biosensor was cloned into pET28a, replacing the typical lacO site controlling the T7 promoter with a single fapO binding site upstream of the sfGFP gene, producing pET28a-T7-fapO-sfGFP (FIG. 5C). Each α-carboxyacyl-CoA was generated enzymatically from the corresponding malonic acid and CoA using the wild-type malonyl-CoA synthetase MatB or the engineered MatB variant, T207G/M306I. Next, the response of the cell-free TX-TL biosensor assay was evaluated by using various concentrations of MatB-generated native effector, mCoA, along with a fixed amount of purified FapR and T7-fapO-sfGFP. […] In addition, the maximum fluorescence signal was ˜15-fold greater than that in the absence of mCoA. Furthermore, to account for potential inhibition of the cell-free biosensor by the MatB reaction mixture, the FapR system was also assayed using a commercial standard of mCoA.
Dose-response analysis of the cell-free TX-TL FapR assay. A premixed solution for cell-free transcription-translation reactions was purchased from New England Biolabs (PURExpress In Vitro Protein Synthesis Kit). To a PCR tube on ice were added (in the order shown): 4 μL Solution A, 3 μL Solution B, 2.5 μM FapR, 250 nM T7-fapO-sfGFP and 0-150 μM of MatB-generated or commercial mCoA in a total volume of 10 μL. In parallel, control reactions in the absence of thioester were assembled by using boiled MatB in the presence of malonic acid. The reaction was incubated for 16 h at 37° C. and then diluted with PBS buffer to give a final total volume of 50 μL.
Cell-Free Characterization of FapR Promiscuity. A commercial kit for cell-free transcription-translation reactions was purchased from New England Biolabs (PURExpress In Vitro Protein Synthesis Kit). To a PCR tube on ice were added (in the order shown): 4 μL Solution A, 3 μL Solution B, 2.5 μM FapR, 250 nM T7-fapO-sfGFP and 150 μM of MatB-generated acyl-CoA or mmSNAC in a total volume of 10 μL (FIG. 9). In parallel, control reactions in the absence of thioester were assembled by using boiled MatB. The reaction was incubated for 16 h at 37° C. and then diluted with PBS buffer to give a final total volume of 50 μL.
Target sequence in this assay (O34835 other isoform, or with tags, fused parts or gaps): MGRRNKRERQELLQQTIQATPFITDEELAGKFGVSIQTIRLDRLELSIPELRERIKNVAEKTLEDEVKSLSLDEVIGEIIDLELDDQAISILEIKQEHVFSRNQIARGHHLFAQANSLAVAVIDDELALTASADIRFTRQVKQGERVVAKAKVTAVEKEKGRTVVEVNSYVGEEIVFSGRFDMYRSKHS

FapR-fapO complex = target: T2, FapR-fapO complex (Bacillus subtilis, UniProt O34835); assay: Electrophoretic mobility shift assay of FapR and fapO; format: binding, B. subtilis; settings: titrated against FapR, 40 bp fapO fragment; read-out: concentration at which half of the DNA would be bound
T2 construct: made in house; host or cells: E. coli BL21(DE3)
T2 sequence (O34835 other isoform, or with tags, fused parts or gaps): as above
Method: Next, the cell-free FapR biosensor was assayed with each α-carboxyacyl-CoA at a fixed concentration (150 μM). […] This robust activity of pgmCoA is due in part to the increased rigidity of the alkyne side-chain or additional interactions of the alkynyl […] with the FapR ligand-binding site, with the […] side-chain of the nearby Phe99 (FIG. 5A). […] To provide further evidence that FapR is de-repressed by derivatives of mCoA, FapR was tested in vitro for DNA-binding and release by electrophoretic mobility shift assay (EMSA) in the presence of mCoA or mmCoA. Using purified wild-type FapR protein, EMSA was run with a 40 bp DNA fragment containing the fapO binding site (FIG. 7).
Electrophoretic mobility shift assay. The fapO oligonucleotides 5′-[…]-3′ (SEQ ID NO:30) and 5′-[…]-3′ (SEQ ID NO:31) were annealed per standard procedure. Briefly, the two oligos were added to a final concentration of 10 μM each in annealing buffer (19 mM Tris, pH 7.5, 50 mM NaCl, 1 mM EDTA) and heated to 95° C. for 2 minutes before cooling to 25° C. at a rate of −1° C. min^−1. […] Reactions were then analyzed by electrophoresis on a 6% PAGE gel at 220 V. The gel was stained with SYBR Green I and imaged on a Typhoon FLA 7000.

Row | SMILES | effector status for FapR (FapR [1]) | effector of FapR as judged by cell-free fluorescence (FapR [2]; FIG. 5D) | fluorescence response (de-repression of FapR/T7-fapO-sfGFP) compared among thioesters (FapR [2]; FIG. 5D) | other results
1 | CC(=O)SCCNC(=O)CCNC(=O)[C@H](O)C(C)(C)COP(=O)(O)OP(=O)(O)OC[C@H]1O[C@@H](n2cnc3c(N)ncnc32)[C@H](O)[C@@H]1OP(=O)(O)O [acetyl-CoA] | non-effectors | – | – | –
2 | CCCCC(C(=O)O)C(=O)SCCNC(=O)CCNC(=O)[C@H](O)C(C)(C)COP(=O)(O)OP(=O)(O)OC[C@H]1O[C@@H](n2cnc3c(N)ncnc32)[C@H](O)[C@@H]1OP(=O)(O)O (stereo partly drawn) [bmCoA, butylmalonyl-CoA] | – | identified as effectors | poorest effectors | –
3 | CCCC(=O)SCCNC(=O)CCNC(=O)[C@H](O)C(C)(C)COP(=O)(O)OP(=O)(O)OC[C@H]1O[C@@H](n2cnc3c(N)ncnc32)[C@H](O)[C@@H]1OP(=O)(O)O [butyryl-CoA] | non-effectors | – | – | –
4 | CCC(C(=O)O)C(=O)SCCNC(=O)CCNC(=O)[C@H](O)C(C)(C)COP(=O)(O)OP(=O)(O)OC[C@H]1O[C@@H](n2cnc3c(N)ncnc32)[C@H](O)[C@@H]1OP(=O)(O)O (stereo partly drawn) [emCoA, ethylmalonyl-CoA] | – | identified as effectors | poorest effectors | –
5 | CC(C)(COP(=O)(O)OP(=O)(O)OC[C@H]1O[C@@H](n2cnc3c(N)ncnc32)[C@H](O)[C@@H]1OP(=O)(O)O)[C@@H](O)C(=O)NCCC(=O)NCCSC(=O)CC(=O)O [mCoA, malonyl-CoA] | – | – | – | maximum fluorescence signal relative to absence of mCoA (FapR [2]; 0-150 μM mCoA): ~15 fold; concentration range with linear fluorescence output of the cell-free biosensor (FapR [2]; MatB-generated mCoA, 2.5 μM FapR, 250 nM T7-fapO-sfGFP): up to 150 μM; fluorescence output, MatB-generated versus commercial mCoA (FapR [2]; dose-response, FIG. 6): no significant difference; EC50 (FapR-fapO complex): 200 µM
6 | CC(C(=O)O)C(=O)SCCNC(=O)CCNC(=O)[C@H](O)C(C)(C)COP(=O)(O)OP(=O)(O)OC[C@H]1O[C@@H](n2cnc3c(N)ncnc32)[C@H](O)[C@@H]1OP(=O)(O)O (stereo partly drawn) [mmCoA, methylmalonyl-CoA] | – | – | statistically indistinguishable from that with the native ligand, mCoA | –
7 | CC(=O)NCCSC(=O)C(C)C(=O)O (stereo not drawn) [mmSNAC] | – | determined to be an effector | – | de-repression activity relative to the corresponding CoA thioester (FapR [2]; 150 μM, fluorescence assay, FIG. 5D): ~50%
8 | C#CCC(C(=O)O)C(=O)SCCNC(=O)CCNC(=O)[C@H](O)C(C)(C)COP(=O)(O)OP(=O)(O)OC[C@H]1O[C@@H](n2cnc3c(N)ncnc32)[C@H](O)[C@@H]1OP(=O)(O)O (stereo partly drawn) [pgmCoA, propargylmalonyl-CoA] | – | identified as effectors | indistinguishable from that of mCoA and mmCoA | –
9 | CCC(=O)SCCNC(=O)CCNC(=O)[C@H](O)C(C)(C)COP(=O)(O)OP(=O)(O)OC[C@H]1O[C@@H](n2cnc3c(N)ncnc32)[C@H](O)[C@@H]1OP(=O)(O)O [propionyl-CoA] | non-effectors | de-repression was not observed | – | –
10 | CC(C)(COP(=O)(O)OP(=O)(O)OC[C@H]1O[C@@H](n2cnc3c(N)ncnc32)[C@H](O)[C@@H]1OP(=O)(O)O)[C@@H](O)C(=O)NCCC(=O)NCCSC(=O)CCC(=O)O [succinyl-CoA] | non-effectors | – | – | –
